The values that follow come from patent EP0023083A1, “Oxodiazole derivatives, processes for their production and pharmaceutical composition containing them” (BEECHAM GROUP PLC, priority 1979, dated 1981).

A word on the ED50: it is the dose that gives a 50% effect, or the effect in half of the subjects. High values mean weaker potency, low ones greater potency.

The subject of the experiment is 5-hydroxy tryptamine induced bronchoconstriction. Nature of the experiment: Bronchodilator activity: inhibition of 5-hydroxy tryptamine induced bronchoconstriction (Konzett-Rossler preparation). The note with it: Cavia porcellus, iv; anaesthetised, artificially respired guinea pig. Type of experiment: in vivo. The method, then:
The compounds were examined for their ability to inhibit 5-hydroxy tryptamine induced bronchoconstriction in the anaethetised, artifically respired guinea pig (Konzett-Rossler preparation). The compounds were administered intravenously.

Each structure is given as a SMILES string.

The compound `CCCCCCC(C)(O)CCN1C(=O)N(C)C(=O)C1CCCCCCCC(C)O` (centres unmarked) [Compound 2] came in with an ED50 of 5.5 µg/kg.
Next, `CCCCCCC(C)(O)CCN1C(=O)N(C)C(=O)C1C/C=C\CCCCC(C)O` (centres unmarked) [Compound 3]: 3.6 µg/kg.
